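These data come from cells grown in 96-well plates and exposed to compound for 48 hours at five concentrations. TGI marks complete inhibition of growth.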
Columns and labels:
Test in all cases: inhibition of tumour cell growth, NCI panel, 48 h
SNB-19 CNS = system: SNB-19 CNS
EKVX NSCLC = system: EKVX NSCLC
ACHN renal = system: ACHN renal
NCI-H522 lung = system: NCI-H522 lung
HOP-92 NSCLC = system: HOP-92 NSCLC
MDA-MB-435 = system: MDA-MB-435
OVCAR-5 ovarian = system: OVCAR-5 ovarian
BT-549 breast = system: BT-549 breast
MALME-3M melanoma = system: MALME-3M melanoma
OVCAR-4 ovarian = system: OVCAR-4 ovarian
RPMI-8226 leukemia = system: RPMI-8226 leukemia
COLO 205 colon = system: COLO 205 colon
CAKI-1 renal = system: CAKI-1 renal
NCI-H460 lung = system: NCI-H460 lung
SNB-75 CNS = system: SNB-75 CNS

## O=C(N[C@H]1CCC[C@H]1C(=O)Nc1ccc(C(F)(F)F)cc1)OCc1ccccc1
SNB-19 CNS
  TGI: > 100 µM
EKVX NSCLC
  TGI: > 100 µM
ACHN renal
  TGI: > 100 µM
NCI-H522 lung
  TGI: > 100 µM
HOP-92 NSCLC
  TGI: > 100 µM
MDA-MB-435
  TGI: > 100 µM
OVCAR-5 ovarian
  TGI: > 100 µM
BT-549 breast
  TGI: > 100 µM
MALME-3M melanoma
  TGI: > 100 µM
OVCAR-4 ovarian
  TGI: > 100 µM
RPMI-8226 leukemia
  TGI: > 100 µM
COLO 205 colon
  TGI: > 100 µM
CAKI-1 renal
  TGI: > 100 µM
NCI-H460 lung
  TGI: > 100 µM

## S=C(N/N=C(\C(=N/NC(=S)N1CCCCC1)c1ccccn1)c1ccccn1)N1CCCCC1
SNB-19 CNS
  TGI: > 100 µM
EKVX NSCLC
  TGI: > 100 µM
ACHN renal
  TGI: 91.6 µM
NCI-H522 lung
  TGI: > 100 µM
HOP-92 NSCLC
  TGI: > 100 µM
MDA-MB-435
  TGI: > 100 µM
OVCAR-5 ovarian
  TGI: > 100 µM
SNB-75 CNS
  TGI: > 100 µM
BT-549 breast
  TGI: > 100 µM
MALME-3M melanoma
  TGI: > 100 µM
RPMI-8226 leukemia
  TGI: > 100 µM
COLO 205 colon
  TGI: > 100 µM
CAKI-1 renal
  TGI: > 100 µM
NCI-H460 lung
  TGI: > 100 µM

## COc1cc([C@@H]2c3cc4c(cc3[C@@H](c3c(O)cc(O)c5c3O[C@H](c3ccc(O)c(O)c3)[C@H](OC(=O)c3cc(O)c(O)c(O)c3)C5)[C@H]3COC(=O)[C@H]23)OCO4)cc(OC)c1O
SNB-19 CNS
  TGI: > 100 µM
EKVX NSCLC
  TGI: > 100 µM
ACHN renal
  TGI: > 100 µM
NCI-H522 lung
  TGI: > 100 µM
HOP-92 NSCLC
  TGI: > 100 µM
MDA-MB-435
  TGI: 57.3 µM
OVCAR-5 ovarian
  TGI: > 100 µM
BT-549 breast
  TGI: > 100 µM
MALME-3M melanoma
  TGI: > 100 µM
OVCAR-4 ovarian
  TGI: > 100 µM
RPMI-8226 leukemia
  TGI: > 100 µM
COLO 205 colon
  TGI: 84.1 µM
CAKI-1 renal
  TGI: > 100 µM
NCI-H460 lung
  TGI: > 100 µM

## COc1ccc(-c2nc(-c3cnccn3)n(Cc3ccccc3)n2)cc1
SNB-19 CNS
  TGI: > 100 µM
NCI-H522 lung
  TGI: > 100 µM
HOP-92 NSCLC
  TGI: > 100 µM
MDA-MB-435
  TGI: > 100 µM
OVCAR-5 ovarian
  TGI: > 100 µM
SNB-75 CNS
  TGI: > 100 µM
BT-549 breast
  TGI: > 100 µM
OVCAR-4 ovarian
  TGI: > 100 µM
RPMI-8226 leukemia
  TGI: > 100 µM
COLO 205 colon
  TGI: > 100 µM
NCI-H460 lung
  TGI: > 100 µM

## COc1ccc(C2C(C#N)=C(S)N(C3OC(CO)C(O)C(O)C3O)C(C)=C2C(C)=O)cc1 (centres undefined)
SNB-19 CNS
  TGI: > 100 µM
ACHN renal
  TGI: > 100 µM
NCI-H522 lung
  TGI: > 100 µM
HOP-92 NSCLC
  TGI: > 100 µM
MDA-MB-435
  TGI: > 100 µM
OVCAR-5 ovarian
  TGI: > 100 µM
SNB-75 CNS
  TGI: > 100 µM
BT-549 breast
  TGI: > 100 µM
MALME-3M melanoma
  TGI: > 100 µM
OVCAR-4 ovarian
  TGI: > 100 µM
RPMI-8226 leukemia
  TGI: > 100 µM
COLO 205 colon
  TGI: > 100 µM
NCI-H460 lung
  TGI: > 100 µM

## CC(=O)O[C@H]1C[C@](C)(O)[C@@]23CC([C@@H](OC(=O)C(C)(C)O)[C@@H](OC(C)=O)C2(COC(=O)c2ccccc2)[C@H]1OC(C)=O)C(C)(C)O3 (some centres undefined)
SNB-19 CNS
  TGI: > 100 µM
EKVX NSCLC
  TGI: > 100 µM
ACHN renal
  TGI: > 100 µM
NCI-H522 lung
  TGI: > 100 µM
HOP-92 NSCLC
  TGI: > 100 µM
MDA-MB-435
  TGI: > 100 µM
OVCAR-5 ovarian
  TGI: > 100 µM
BT-549 breast
  TGI: > 100 µM
MALME-3M melanoma
  TGI: > 100 µM
OVCAR-4 ovarian
  TGI: > 100 µM
RPMI-8226 leukemia
  TGI: > 100 µM
COLO 205 colon
  TGI: > 100 µM
CAKI-1 renal
  TGI: > 100 µM
NCI-H460 lung
  TGI: > 100 µM

## O=C1CC(C(COCc2ccccc2)OCc2ccccc2)CC(=O)N1 (centres undefined)
SNB-19 CNS
  TGI: > 100 µM
EKVX NSCLC
  TGI: > 100 µM
ACHN renal
  TGI: > 100 µM
NCI-H522 lung
  TGI: > 100 µM
HOP-92 NSCLC
  TGI: > 100 µM
MDA-MB-435
  TGI: > 100 µM
OVCAR-5 ovarian
  TGI: > 100 µM
BT-549 breast
  TGI: > 100 µM
MALME-3M melanoma
  TGI: > 100 µM
RPMI-8226 leukemia
  TGI: > 100 µM
CAKI-1 renal
  TGI: > 100 µM

## Cc1c2cccc-2c(OCCOC(=O)n2ccnc2)cc2c1[nH]c1ccccc12
SNB-19 CNS
  TGI: 5.97 µM
EKVX NSCLC
  TGI: 4.18 µM
ACHN renal
  TGI: 7.27 µM
NCI-H522 lung
  TGI: 4.66 µM
HOP-92 NSCLC
  TGI: 4.28 µM
MDA-MB-435
  TGI: 9.69 µM
OVCAR-5 ovarian
  TGI: 7.51 µM
SNB-75 CNS
  TGI: 3.02 µM
BT-549 breast
  TGI: 9.06 µM
MALME-3M melanoma
  TGI: 7.61 µM
OVCAR-4 ovarian
  TGI: 5.63 µM
RPMI-8226 leukemia
  TGI: 9.9 µM
CAKI-1 renal
  TGI: 17.8 µM
NCI-H460 lung
  TGI: 18.1 µM

## CC(=O)c1[nH]c(Nc2ccc(C)cc2)c(C(=S)Nc2ccccc2)c1N
SNB-19 CNS
  TGI: 42.9 µM
EKVX NSCLC
  TGI: 96.7 µM
ACHN renal
  TGI: 36.2 µM
NCI-H522 lung
  TGI: 32.5 µM
HOP-92 NSCLC
  TGI: 35.9 µM
MDA-MB-435
  TGI: 30.9 µM
OVCAR-5 ovarian
  TGI: > 100 µM
SNB-75 CNS
  TGI: 50.3 µM
BT-549 breast
  TGI: 31.6 µM
MALME-3M melanoma
  TGI: 31.9 µM
OVCAR-4 ovarian
  TGI: 54.9 µM
COLO 205 colon
  TGI: > 100 µM
CAKI-1 renal
  TGI: 35.6 µM
NCI-H460 lung
  TGI: 31.9 µM

## CN(C)CC1CCCc2ccccc2C1=O (centres undefined)
SNB-19 CNS
  TGI: 26.4 µM
EKVX NSCLC
  TGI: 3.4 µM
ACHN renal
  TGI: 3.3 µM
HOP-92 NSCLC
  TGI: 34.8 µM
MDA-MB-435
  TGI: 2.62 µM
OVCAR-5 ovarian
  TGI: 33.5 µM
SNB-75 CNS
  TGI: 56.2 µM
BT-549 breast
  TGI: 9.8 µM
MALME-3M melanoma
  TGI: 3.62 µM
OVCAR-4 ovarian
  TGI: 2.01 µM
RPMI-8226 leukemia
  TGI: 0.21 µM
COLO 205 colon
  TGI: 12.5 µM
CAKI-1 renal
  TGI: 6.25 µM
NCI-H460 lung
  TGI: 39.9 µM

## COc1cc(S(=O)(=O)Nc2ccc(-c3csc(N4C(=O)C(C)SC4c4ccccc4)n3)cc2)ccc1Cl (centres undefined)
SNB-19 CNS
  TGI: > 100 µM
EKVX NSCLC
  TGI: > 100 µM
ACHN renal
  TGI: > 100 µM
NCI-H522 lung
  TGI: > 100 µM
HOP-92 NSCLC
  TGI: > 100 µM
MDA-MB-435
  TGI: > 100 µM
OVCAR-5 ovarian
  TGI: > 100 µM
SNB-75 CNS
  TGI: 32.7 µM
BT-549 breast
  TGI: > 100 µM
MALME-3M melanoma
  TGI: > 100 µM
OVCAR-4 ovarian
  TGI: > 100 µM
RPMI-8226 leukemia
  TGI: > 100 µM
COLO 205 colon
  TGI: > 100 µM
CAKI-1 renal
  TGI: > 100 µM

## O=C(CC(c1ccccc1)C(C(=O)c1ccncc1)C(CC(=O)c1ccncc1)c1ccccc1)c1ccncc1 (centres undefined)
SNB-19 CNS
  TGI: > 100 µM
EKVX NSCLC
  TGI: > 100 µM
ACHN renal
  TGI: > 100 µM
HOP-92 NSCLC
  TGI: > 100 µM
MDA-MB-435
  TGI: > 100 µM
OVCAR-5 ovarian
  TGI: > 100 µM
SNB-75 CNS
  TGI: > 100 µM
BT-549 breast
  TGI: 57.3 µM
MALME-3M melanoma
  TGI: > 100 µM
RPMI-8226 leukemia
  TGI: > 100 µM
COLO 205 colon
  TGI: > 100 µM
CAKI-1 renal
  TGI: > 100 µM
NCI-H460 lung
  TGI: > 100 µM

## O=C(/C=C/c1ccccc1)Oc1cccc(Br)c1
SNB-19 CNS
  TGI: > 100 µM
EKVX NSCLC
  TGI: > 100 µM
ACHN renal
  TGI: > 100 µM
NCI-H522 lung
  TGI: 29.2 µM
HOP-92 NSCLC
  TGI: > 100 µM
MDA-MB-435
  TGI: > 100 µM
OVCAR-5 ovarian
  TGI: > 100 µM
SNB-75 CNS
  TGI: > 100 µM
BT-549 breast
  TGI: > 100 µM
OVCAR-4 ovarian
  TGI: > 100 µM
RPMI-8226 leukemia
  TGI: 40.2 µM
COLO 205 colon
  TGI: > 100 µM
CAKI-1 renal
  TGI: > 100 µM
NCI-H460 lung
  TGI: > 100 µM

## N#Cc1ccc2[nH]c3c(c2c1)CC(=O)Nc1ccccc1-3
SNB-19 CNS
  TGI: > 100 µM
EKVX NSCLC
  TGI: > 100 µM
ACHN renal
  TGI: > 100 µM
NCI-H522 lung
  TGI: > 100 µM
HOP-92 NSCLC
  TGI: > 100 µM
MDA-MB-435
  TGI: > 100 µM
OVCAR-5 ovarian
  TGI: > 100 µM
SNB-75 CNS
  TGI: > 100 µM
BT-549 breast
  TGI: > 100 µM
OVCAR-4 ovarian
  TGI: > 100 µM
RPMI-8226 leukemia
  TGI: > 100 µM
COLO 205 colon
  TGI: > 100 µM
CAKI-1 renal
  TGI: > 100 µM
NCI-H460 lung
  TGI: > 100 µM

## N#CCc1nc2cc(C(F)(F)F)ccc2s1
EKVX NSCLC
  TGI: > 100 µM
ACHN renal
  TGI: > 100 µM
NCI-H522 lung
  TGI: 34.5 µM
HOP-92 NSCLC
  TGI: 48.1 µM
MDA-MB-435
  TGI: > 100 µM
OVCAR-5 ovarian
  TGI: > 100 µM
SNB-75 CNS
  TGI: > 100 µM
BT-549 breast
  TGI: > 100 µM
MALME-3M melanoma
  TGI: > 100 µM
OVCAR-4 ovarian
  TGI: > 100 µM
RPMI-8226 leukemia
  TGI: > 100 µM
COLO 205 colon
  TGI: > 100 µM
CAKI-1 renal
  TGI: > 100 µM

## C1=CN2C[n+]3ccc4ccccc4c3N=C2c2ccccc21
SNB-19 CNS
  TGI: 33.3 µM
EKVX NSCLC
  TGI: 38.8 µM
ACHN renal
  TGI: 70.5 µM
NCI-H522 lung
  TGI: 5.09 µM
HOP-92 NSCLC
  TGI: 7.92 µM
MDA-MB-435
  TGI: 7.24 µM
OVCAR-5 ovarian
  TGI: 47 µM
BT-549 breast
  TGI: 20.9 µM
MALME-3M melanoma
  TGI: 3.46 µM
RPMI-8226 leukemia
  TGI: 11.8 µM
COLO 205 colon
  TGI: 4.26 µM
CAKI-1 renal
  TGI: 50.2 µM
NCI-H460 lung
  TGI: 16.4 µM
